Assay results published in PMC11203978, “Discovery of Di(het)arylmethane and Dibenzoxanthene Derivatives as Potential Anticancer Agents” (International Journal of Molecular Sciences, 2024).
Read-outs that look alike come from different tables or passages of the source.

How the values were obtained:
[1] = system: M-HeLa; assay: MTT cytotoxicity, M-HeLa; type: cell-based, human; details: Homo sapiens, M-HeLa; MTT, 48 h incubation; read-out: IC50 (µM) Cancer Cell Lines M-HeLa
Text: (§1) Cells and Materials. For the experiments, we used tumor cell cultures M-HeLa clone 11 (epithelioid carcinoma of the cervix, subline HeLa, clone M-HeLa), HuTu 80, human duodenal adenocarcinoma, Hep-2, human epithelial cells, SH-SY5Y, human neuroblast-like cells, A549, human lung adenocarcinoma, PA-1, human ovarian teratocarcinoma and MCF-7, a human mammary ductal adenocarcinoma from the collection of the Institute of Cytology, Russian Academy of Sciences (St. Petersburg, Russia); human liver cells (Chang liver) were from the collection and the Research Institute of Virology of the Russian Academy of Medical Sciences (Moscow, Russia).
(§2) MTT Assay. The cytotoxic effect on cells was determined using the colorimetric method of cell proliferation—the MTT test. NADP-H-dependent cellular oxidoreductase enzymes can, under certain conditions, reflect the number of viable cells. These enzymes reduce the tetrazolium dye (MTT) 3-(4,5-dimethylthiazol-2-yl)-2,5-diphenyl-tetrazolium bromide to insoluble blue-violet formazan, which crystallizes inside the cell. The amount of formed formazan is proportional to the number of cells with active metabolism. Cells were seeded on a 96-well Nunc plate at a concentration of 5 × 10^3 cells per well in a volume of 100 μL of medium and cultured in a CO2 incubator at 37 °C until a monolayer was formed. After the nutrient medium was removed, 100 µL of the test drug solutions at the given dilutions were added to the wells, which were prepared directly in the nutrient medium with the addition of 5% DMSO to improve solubility. After 48 h of incubation of the cells with the tested compounds, the nutrient medium was removed from the plates and 100 µL of the nutrient medium without serum with MTT at a concentration of 0.5 mg/mL was added and incubated for 4 h at 37 °C. Formazan crystals were added 100 µL of DMSO to each well. Optical density was recorded at 540 nm on an Invitrologic microplate reader (Novosibirsk, Russia). The experiments for all compounds were repeated three times.
(§3) Statistical analysis. The IC50 values were calculated using the MLA–Quest Graph™ IC50 Calculator (AAT Bioquest, Inc., Sunnyvale, CA, USA), 14 February 2022. Statistical analysis was performed with the Mann–Whitney test (p < 0.05). Tabular and graphical data contain averages and standard error.

[2] = system: HuTu 80; assay: MTT cytotoxicity, HuTu 80; type: cell-based, human; details: for IC50: MTT, 48 h incubation, read-out: IC50 (µM) Cancer Cell Lines HuTu 80
Text: as §1, §2, §3

[3] = system: Chang Liver; assay: MTT cytotoxicity, normal Chang liver cells; type: cell-based, human; details: Homo sapiens, Chang liver, 48 h incubation, read-out: IC50 (µM) Normal Cell Line Chang Liver
Text: as §1, §2, §3

[4] = system: Hep-2; assay: MTT cytotoxicity, Hep-2; type: cell-based; details: Homo sapiens, read-out: IC50 (µM) Cancer Cell Lines Hep-2
Text: as §1
(§4) MTT Assay. The cytotoxic effect on cells was determined using the colorimetric method of cell proliferation—the MTT test. NADP-H-dependent cellular oxidoreductase enzymes can, under certain conditions, reflect the number of viable cells. These enzymes reduce the tetrazolium dye (MTT) 3-(4,5-dimethylthiazol-2-yl)-2,5-diphenyl-tetrazolium bromide to insoluble blue-violet formazan, which crystallizes inside the cell. The amount of formed formazan is proportional to the number of cells with active metabolism. […] Optical density was recorded at 540 nm on an Invitrologic microplate reader (Novosibirsk, Russia). […]
(§5) Statistical analysis. The IC50 values were calculated using the MLA–Quest Graph™ IC50 Calculator (AAT Bioquest, Inc., Sunnyvale, CA, USA), 14 February 2022. […]

[5] = system: SH-SY5Y; assay: MTT cytotoxicity, SH-SY5Y; type: cell-based; details: Homo sapiens, read-out: IC50 (µM) Cancer Cell Lines SH-SY5Y
Text: as §1, §4, §5

[6] = system: A549; assay: MTT cytotoxicity, A549; type: cell-based; details: Homo sapiens, read-out: IC50 (µM) Cancer Cell Lines A549
Text: as §1, §4, §5

[7] = system: PA-1; assay: MTT cytotoxicity, PA-1; type: cell-based; details: Homo sapiens, read-out: IC50 (µM) Cancer Cell Lines PA-1
Text: as §1, §4, §5

[8] = system: MCF-7; assay: MTT cytotoxicity, MCF-7; type: cell-based; details: Homo sapiens, MCF7, read-out: IC50 (µM) Cancer Cell Lines MCF-7
Text: as §1, §4, §5

[9] = system: HuTu 80 cells; assay: Induction of apoptosis, flow cytometry (annexin V-Alexa Fluor 647 / propidium iodide); type: cell-based, human; details: IC50/2 and IC50, 24 h
Procedure: The ability of the new compounds, proposed as antitumor agents, to induce cell death via apoptosis is a critical feature for their potential use in therapy. The apoptosis-inducing effects of lead compounds were investigated using flow cytometry at IC50/2 and IC50 concentrations on the HuTu 80 cell line (Figure 6A).
(§6) Cell Culture. HuTu 80 cells at 1 × 10^6 cells/well in a final volume of 2 mL were seeded into six-well plates. After 48 h of incubation, various concentrations of lead compounds were added to wells.
Cell Apoptosis Analysis. The cells were harvested at 2000 rpm for 5 min and were then washed twice with ice-cold PBS, and resuspended in binding buffer. Next, the samples were incubated with 5 μL of annexin V-Alexa Fluor 647 (Sigma-Aldrich, St Louis, MO, USA) and 5 μL of propidium iodide for 15 min at room temperature in the dark. Finally, the cells were analyzed using flow cytometry (Guava easy Cyte, MERCK, Rahway, NJ, USA) within 1 h. The experiments were repeated three times.

[10] = system: HuTu 80 cells; assay: Mitochondrial membrane potential, JC-10 flow cytometry; type: cell-based, human; details: 24 h treatment, IC50/2 and IC50
Procedure: In this study, we used the fluorescent dye JC-10 from the Mitochondria Membrane Potential Kit (Sigma, St. Louis, MO, USA). Changes in mitochondrial membrane potential under the influence of lead compounds 5a and 6a were determined at IC50/2 and IC50 concentrations on the HuTu 80 cell line. When JC-10 accumulates in the mitochondrial matrix, it forms fluorescent J-aggregates. Their red fluorescence is characteristic for normal cells with high mitochondrial membrane potential. The reduction in mitochondrial membrane potential in apoptotic cells allows JC-10 to escape out of the mitochondria in a monomeric form which has green fluorescence. The mitochondrial membrane potential of HuTu 80 cells is decreased after 24 h treatment with the lead compounds 5a and 6a. The change becomes more pronounced as the concentrations of the tested compounds approach IC50 (Figure 7).
as §6
Mitochondrial Membrane Potential. […] After the cells were rinsed three times and suspended in PBS, the JC-10 fluorescence was observed using flow cytometry (Guava easy Cyte, MERCK, Rahway, NJ, USA).

[11] = system: HuTu 80 cells; assay: Intracellular ROS, CellROX Deep Red flow cytometry; type: cell-based, human; details: IC50/2 and IC50
Procedure: The apoptosis via the mitochondrial pathway also increases the production of reactive oxygen species (ROS). As mitochondria itself becomes the target of ROS, an increase in their production disrupts mitochondrial functions and culminates in irreversible cell damage. Therefore, the effect of lead compounds 6a and 5a at IC50/2 and IC50 concentrations on ROS production in HuTu 80 cells was evaluated using flow cytometry. […] Such an effect is not observed for intact cells in the presence of both compounds, indicating an increase in ROS production in cancer tissues.
Detection of Intracellular ROS. HuTU 80 cells were incubated with lead compounds at concentrations of IC50/2 and IC50 for 48 h. ROS generation was investigated using flow cytometry assay and CellROX® Deep Red flow cytometry kit. For this purpose, […] cells were harvested at 2000 rpm for 5 min and then washed twice with ice-cold PBS, followed by resuspension in 0.1 mL of medium without FBS, to which was added 0.2 μL of CellROX® Deep Red, which was followed by incubation at 37 °C for 30 min. The cells were washed three times and suspended in PBS. After that, the production of ROS in the cells was immediately monitored using flow cytometer (Guava easy Cyte, MERCK, Rahway, NJ, USA).

## Cc1cc(O)c(C(CCNC(=O)CCl)c2c(O)cc(C)oc2=O)c(=O)o1 [Compound 5a]
[1]
  IC50: 56.2 ± 4.7 µM
[2]; Homo sapiens, HuTu80, 48 h
  IC50: 1.7 µM
[2]; HuTu 80
  times more effective / more cytotoxic than the reference drug sorafenib: 1.7
[2]
  IC50: 1.9 ± 0.2 µM
[3]
  IC50: 139 ± 11 µM
[4]
  IC50: 65.8 ± 1.18 µM
[5]
  IC50: 75.8 ± 2.84 µM
[6]
  IC50: 82.1 ± 3.56 µM
[7]
  IC50: 80.2 ± 4.05 µM
[8]
  IC50: 85.6 ± 3.12 µM
[9]
  apoptosis-inducing effect (in words): apoptotic effects increase at the early apoptosis stage
[10]
  mitochondrial membrane potential (in words): decreased
[11]
  ROS production, CellROX Deep Red fluorescence intensity (in words): significant reliable increase
